# Calls of active or inactive are those of the source.
# Key:
# HEK293 = assay: EBV LMP1 TES2 canonical NF-kB signalling blockers – cell-based, HEK293, luciferase, cherry-pick, dose response (AID 588343); type: functional; conditions: Homo sapiens
# Nonstructural protein 1 = Nonstructural protein 1 (Influenza A virus, UniProt Q194T2); type: functional, Influenza A virus (A/California/07/2009(H1N1))
# P388/ADR = assay: cells; type: functional; conditions: Mus musculus
# SN12K1 = assay: cells; type: functional; conditions: Homo sapiens
# P388 = assay: cells; type: functional; conditions: Mus musculus
# [1] = bead-based luminescence quenchers, dual-tagged ARNT – biochemical, AlphaScreen, cherry-pick, artefact control for ARNT-TACC3 interaction inhibitor project, dose response (AID 651705); type: functional;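 also: AlphaScreen bead proximity signal that flags compounds interfering with the detection technology; potency reflects signal decrease which marks the compound as an assay artifact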
# [2] = target: T1, Heat shock factor protein 1 (Mus musculus, UniProt P38532); assay: decrease of HSF1-responsive luciferase luminescence – cell-based, NIH3T3, dose retest, confirmation (AID 2382); type: functional;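 also: NIH3T3 fibroblasts with HSF1-driven luciferase reporter stressed by proteasome inhibitor MG132; luminescence from HSF1-driven luciferase expression after 8 hours of MG132 stress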
# T1 sequence (P38532 whole entry): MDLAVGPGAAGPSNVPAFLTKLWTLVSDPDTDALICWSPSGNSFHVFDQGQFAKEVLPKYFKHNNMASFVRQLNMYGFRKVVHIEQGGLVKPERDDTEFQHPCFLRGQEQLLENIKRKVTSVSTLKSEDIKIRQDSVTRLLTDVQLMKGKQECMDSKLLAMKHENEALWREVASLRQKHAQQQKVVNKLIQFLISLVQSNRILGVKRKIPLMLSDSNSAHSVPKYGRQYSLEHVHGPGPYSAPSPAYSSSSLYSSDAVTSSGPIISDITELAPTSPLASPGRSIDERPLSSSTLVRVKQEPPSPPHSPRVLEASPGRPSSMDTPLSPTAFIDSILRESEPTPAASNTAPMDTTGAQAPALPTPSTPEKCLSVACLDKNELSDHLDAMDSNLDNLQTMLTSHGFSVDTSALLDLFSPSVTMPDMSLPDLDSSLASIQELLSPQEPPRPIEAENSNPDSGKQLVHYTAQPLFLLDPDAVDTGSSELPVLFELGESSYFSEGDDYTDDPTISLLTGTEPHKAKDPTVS
# [3] = target: T2, Corticotropin-releasing factor receptor 2/Corticotropin-releasing factor-binding protein (Homo sapiens, UniProt P24387+Q13324); assay: activators of CRF receptor 2 with binding protein – uHTS hits, confirmation (AID 602473); type: functional; conditions: read-out: EC50_Mean
# T2 sequence (Q13324 whole entry): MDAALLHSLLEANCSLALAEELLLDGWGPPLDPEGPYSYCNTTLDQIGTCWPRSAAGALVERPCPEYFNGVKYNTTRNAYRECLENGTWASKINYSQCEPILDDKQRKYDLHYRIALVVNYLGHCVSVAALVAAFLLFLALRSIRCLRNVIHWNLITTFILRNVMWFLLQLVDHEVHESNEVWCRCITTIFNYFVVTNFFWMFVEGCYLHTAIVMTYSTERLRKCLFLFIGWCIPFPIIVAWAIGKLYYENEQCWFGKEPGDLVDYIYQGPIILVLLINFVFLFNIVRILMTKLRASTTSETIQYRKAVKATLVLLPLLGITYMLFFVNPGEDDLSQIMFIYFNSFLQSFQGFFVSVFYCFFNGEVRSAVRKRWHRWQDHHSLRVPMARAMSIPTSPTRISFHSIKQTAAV
# T2 sequence (P24387 whole entry): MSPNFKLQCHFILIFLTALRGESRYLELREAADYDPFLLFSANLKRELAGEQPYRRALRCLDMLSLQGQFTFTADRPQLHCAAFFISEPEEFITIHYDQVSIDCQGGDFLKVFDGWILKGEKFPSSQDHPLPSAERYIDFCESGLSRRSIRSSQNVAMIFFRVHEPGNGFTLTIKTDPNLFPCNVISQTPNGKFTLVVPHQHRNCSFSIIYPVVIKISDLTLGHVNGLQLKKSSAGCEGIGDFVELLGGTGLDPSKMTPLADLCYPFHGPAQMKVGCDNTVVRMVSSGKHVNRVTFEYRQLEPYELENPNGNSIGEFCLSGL
# [4] = target: T3, Eukaryotic translation initiation factor 2-alpha kinase 3 (Homo sapiens, UniProt Q9NZJ5); assay: Dose response cell-based high-throughput screening assay to measure PERK inhibition. [Related pubchem assays: 1416 ]; type: functional
# T3 sequence (Q9NZJ5 whole entry): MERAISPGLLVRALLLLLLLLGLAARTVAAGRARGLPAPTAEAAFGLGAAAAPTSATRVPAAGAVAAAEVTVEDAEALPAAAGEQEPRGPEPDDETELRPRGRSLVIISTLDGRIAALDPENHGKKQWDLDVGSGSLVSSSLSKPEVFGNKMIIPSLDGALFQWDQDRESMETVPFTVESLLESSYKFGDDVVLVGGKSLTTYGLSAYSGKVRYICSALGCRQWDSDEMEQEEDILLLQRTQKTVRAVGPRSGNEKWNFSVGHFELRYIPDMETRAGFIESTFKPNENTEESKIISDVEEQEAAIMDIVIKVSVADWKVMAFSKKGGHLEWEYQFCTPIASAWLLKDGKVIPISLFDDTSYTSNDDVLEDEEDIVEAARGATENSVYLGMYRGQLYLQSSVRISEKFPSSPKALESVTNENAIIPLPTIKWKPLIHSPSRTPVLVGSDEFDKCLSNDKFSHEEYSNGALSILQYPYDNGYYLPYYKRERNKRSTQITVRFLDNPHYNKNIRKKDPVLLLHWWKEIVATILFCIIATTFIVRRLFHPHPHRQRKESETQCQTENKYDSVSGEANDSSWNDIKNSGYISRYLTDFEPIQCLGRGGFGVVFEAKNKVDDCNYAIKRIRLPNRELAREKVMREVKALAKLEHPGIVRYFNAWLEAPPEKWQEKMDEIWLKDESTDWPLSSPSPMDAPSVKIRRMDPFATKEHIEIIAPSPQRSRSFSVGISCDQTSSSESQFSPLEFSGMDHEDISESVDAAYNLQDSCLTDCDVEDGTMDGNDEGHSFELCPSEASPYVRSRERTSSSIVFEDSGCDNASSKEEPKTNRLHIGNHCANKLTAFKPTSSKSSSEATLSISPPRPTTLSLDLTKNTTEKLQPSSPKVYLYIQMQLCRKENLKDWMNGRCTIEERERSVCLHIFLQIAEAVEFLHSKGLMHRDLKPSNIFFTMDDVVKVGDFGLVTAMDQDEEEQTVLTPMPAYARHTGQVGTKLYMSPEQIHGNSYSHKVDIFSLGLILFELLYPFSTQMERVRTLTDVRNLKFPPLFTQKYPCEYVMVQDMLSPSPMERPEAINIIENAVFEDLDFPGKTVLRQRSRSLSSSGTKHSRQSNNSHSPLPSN
# [5] = target: T3, Eukaryotic translation initiation factor 2-alpha kinase 3; assay: Counterscreen assay for PERK inhibitors: Dose response cell-based high throughput screening assay to measure inhibition of PERK at 6 hours. [Related pubchem assays: 1522, 1416 ]; type: functional
# [6] = target: T4, Replicative DNA helicase DnaB (Mycobacterium tuberculosis, UniProt P9WMR3); assay: DnaB intein splicing inhibitors, dose response, biochemical, cell-free fluorescence (AID 449749); type: functional
# T4 sequence (P9WMR3 whole entry): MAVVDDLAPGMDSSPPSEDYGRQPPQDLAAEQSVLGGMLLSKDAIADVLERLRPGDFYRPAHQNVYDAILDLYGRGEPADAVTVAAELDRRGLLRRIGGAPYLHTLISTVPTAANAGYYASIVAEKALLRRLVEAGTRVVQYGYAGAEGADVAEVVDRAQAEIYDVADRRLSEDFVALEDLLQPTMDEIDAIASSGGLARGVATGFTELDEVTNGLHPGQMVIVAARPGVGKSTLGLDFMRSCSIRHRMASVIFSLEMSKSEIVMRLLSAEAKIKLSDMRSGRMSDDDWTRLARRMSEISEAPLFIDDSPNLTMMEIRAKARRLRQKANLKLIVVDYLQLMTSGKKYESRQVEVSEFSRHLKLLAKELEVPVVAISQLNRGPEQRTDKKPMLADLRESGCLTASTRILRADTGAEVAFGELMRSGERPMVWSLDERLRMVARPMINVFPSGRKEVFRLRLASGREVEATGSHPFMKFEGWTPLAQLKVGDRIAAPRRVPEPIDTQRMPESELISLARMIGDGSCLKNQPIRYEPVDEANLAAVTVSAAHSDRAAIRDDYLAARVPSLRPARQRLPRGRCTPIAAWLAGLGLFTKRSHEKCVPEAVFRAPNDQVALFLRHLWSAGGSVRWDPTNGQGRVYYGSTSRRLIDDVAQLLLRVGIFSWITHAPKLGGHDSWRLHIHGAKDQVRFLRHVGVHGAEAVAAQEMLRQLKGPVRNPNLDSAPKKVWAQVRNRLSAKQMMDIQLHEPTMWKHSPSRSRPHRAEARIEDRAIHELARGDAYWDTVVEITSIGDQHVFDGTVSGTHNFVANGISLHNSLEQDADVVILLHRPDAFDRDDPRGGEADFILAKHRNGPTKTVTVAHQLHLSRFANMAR
# Protein RecA = target: T5, Protein RecA (Mycobacterium tuberculosis, UniProt P9WHJ3); assay: Fluorescence Cell-Free Homogeneous Dose Retest to Identify Inhibitors of RecA-Intein Splicing Activity. [Related pubchem assays (depositor defined):AID2097, AID2223, AID489010, AID492950]; type: functional
# T5 sequence (P9WHJ3 whole entry): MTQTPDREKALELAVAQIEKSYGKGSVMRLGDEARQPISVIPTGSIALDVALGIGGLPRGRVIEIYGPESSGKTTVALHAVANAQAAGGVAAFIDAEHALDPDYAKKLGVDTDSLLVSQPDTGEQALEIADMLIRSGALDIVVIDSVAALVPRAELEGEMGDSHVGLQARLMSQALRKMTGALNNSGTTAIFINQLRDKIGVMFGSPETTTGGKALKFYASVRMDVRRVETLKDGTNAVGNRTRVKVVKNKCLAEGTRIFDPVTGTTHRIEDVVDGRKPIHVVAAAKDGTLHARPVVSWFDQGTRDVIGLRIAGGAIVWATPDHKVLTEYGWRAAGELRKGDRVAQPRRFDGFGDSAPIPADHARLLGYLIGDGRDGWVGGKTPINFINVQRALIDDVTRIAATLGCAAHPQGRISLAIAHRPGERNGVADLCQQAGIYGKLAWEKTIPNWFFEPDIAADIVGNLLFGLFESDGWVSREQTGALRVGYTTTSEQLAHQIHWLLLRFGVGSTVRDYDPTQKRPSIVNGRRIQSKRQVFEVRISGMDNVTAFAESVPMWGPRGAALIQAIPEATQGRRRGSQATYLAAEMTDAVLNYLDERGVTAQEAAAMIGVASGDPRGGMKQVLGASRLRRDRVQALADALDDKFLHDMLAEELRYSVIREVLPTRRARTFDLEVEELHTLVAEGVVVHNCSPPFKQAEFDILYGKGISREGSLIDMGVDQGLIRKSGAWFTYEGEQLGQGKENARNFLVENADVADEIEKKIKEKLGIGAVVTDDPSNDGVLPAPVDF
# Chain of Nonstructural protein 1 (Q194T2 whole entry): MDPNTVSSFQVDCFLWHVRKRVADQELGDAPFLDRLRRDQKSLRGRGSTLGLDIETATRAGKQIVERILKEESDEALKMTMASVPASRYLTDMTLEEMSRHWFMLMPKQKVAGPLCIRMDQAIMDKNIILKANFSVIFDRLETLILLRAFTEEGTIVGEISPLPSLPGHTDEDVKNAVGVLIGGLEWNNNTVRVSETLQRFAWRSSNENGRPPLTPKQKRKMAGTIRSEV
SMILES,AC50 (HEK293),GI50 (P388/ADR),GI50 (SN12K1),GI50 (P388),further results
Cc1ccccc1-n1nc(C)c2cc(C(=O)NC3CC3)sc21,196 µM (active),–,–,–,–
Cc1cc(O)nc(NN=Cc2cc(Br)ccc2O)n1,5.26 µM (active),–,–,–,IC50 (Nonstructural protein 1): 12.2 µM (active)
O=C1CSc2sc(=S)sc2S1,–,27.7 µM (inactive),> 100 µM (inactive),31.2 µM (inactive),–
N#CC1=C(N)Oc2c(ccc3cccnc23)C1c1ccncc1 (stereo not given),–,–,–,–,AC50 [1]: 99.4 µM (active)
CCN1C(=O)C(=CNc2ccc(N3CCOCC3)c(Br)c2)C(=O)N(CC)C1=S,> 350 µM (inactive),–,–,–,EC50 [2]: > 195 µM (not active); EC50 [3]: > 53 µM (inactive)
CN1N=C(C(C)(C)C)CC1=O,–,–,–,–,EC50 [4]: > 55.7 µM (not active); EC50 [5]: > 55.7 µM (not active); AC50 [6]: 9.6 µM (active); EC50 (Protein RecA): 2.5 µM (active)
C[S+]([O-])c1cc(=O)c2ccccc2s1 (stereo not given),–,2.66 µM (inactive),17.8 µM (inactive),1.83 µM (inactive),–
O=C1Nc2ccccc2Nc2ccncc21,–,> 31.6 µM (inactive),> 100 µM (inactive),> 100 µM (inactive),–
C/C=C1\NC(=O)[C@H]2CSSCCC=C[C@H](CC(=O)N[C@H](C(C)C)C(=O)N2)OC(=O)[C@H](C(C)C)NC1=O,–,< 0.0241 µM (active),< 0.01 µM (active),< 0.01 µM (active),–
Cc1[nH]c(=O)[nH]c(=O)c1/C=C/C(=O)NC(CO)C[S+]([O-])C[S+](C)[O-] (stereo not given),–,23.2 µM (inactive),9.38 µM (inactive),19.4 µM (inactive),–
CC(=O)OCC1OC(n2cc(F)c(=O)[nH]c2=O)C(N)C(OC(C)=O)C1OC(C)=O (stereo not given),–,> 100 µM (inactive),> 100 µM (inactive),> 100 µM (inactive),–
Cc1ccc(C(=O)Nc2cccc(C(F)(F)F)c2)cc1Nc1[nH]cnc2ncnc1-2,7.93 µM (active),–,–,–,–

# — ChEMBL document CHEMBL1201862, “PubChem BioAssay data set” (2004)
